Laboratory results reported in article PMC10367131 (ACS Synthetic Biology, 2023).
Each block holds one molecule with its values, some of them ahead of it.

Tests used:
[1] = target: T1, VgGR/RXR (Homo sapiens, UniProt P04150+P19793, F602S); assay: VgGR/RXR luciferase reporter co-transfection assay in HEK293 cells; format: cell-based
T1 sequence (P04150 523-777 F602S limits assumed): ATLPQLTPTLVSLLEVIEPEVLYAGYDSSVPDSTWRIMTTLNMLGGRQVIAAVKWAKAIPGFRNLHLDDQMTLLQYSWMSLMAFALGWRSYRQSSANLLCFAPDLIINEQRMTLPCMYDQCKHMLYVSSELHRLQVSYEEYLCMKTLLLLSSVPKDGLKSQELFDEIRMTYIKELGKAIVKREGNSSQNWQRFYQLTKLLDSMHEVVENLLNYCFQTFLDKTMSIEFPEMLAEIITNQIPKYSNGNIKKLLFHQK
T1 sequence (P19793 1-462): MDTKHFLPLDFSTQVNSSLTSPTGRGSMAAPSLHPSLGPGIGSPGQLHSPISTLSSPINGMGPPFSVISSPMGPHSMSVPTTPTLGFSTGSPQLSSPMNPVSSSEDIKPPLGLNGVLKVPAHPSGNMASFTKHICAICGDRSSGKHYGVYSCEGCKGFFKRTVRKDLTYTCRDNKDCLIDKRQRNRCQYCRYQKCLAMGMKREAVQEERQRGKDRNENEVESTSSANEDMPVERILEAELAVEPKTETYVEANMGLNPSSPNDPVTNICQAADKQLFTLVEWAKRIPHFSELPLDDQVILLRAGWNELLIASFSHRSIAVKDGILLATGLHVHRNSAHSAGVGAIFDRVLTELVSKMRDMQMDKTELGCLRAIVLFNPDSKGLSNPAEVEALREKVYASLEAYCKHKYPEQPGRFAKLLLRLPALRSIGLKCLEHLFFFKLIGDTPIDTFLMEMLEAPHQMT

[2] = system: VgEcR/RXR; assay: Original VgEcR/RXR luciferase reporter co-transfection assay in HEK293 cells; format: cell-based, human; details: ligand alone at 1 µM or 10 µM, HEK293, 20 h

Maximal activation of reporter expression by ligand alone [1]: around one order of magnitude
Compound: C[C@@H]1C[C@H]2[C@@H]3CCC4=CC(=O)C=C[C@]4(C)[C@@]3(F)[C@@H](O)C[C@]2(C)[C@@]1(O)C(=O)CO [DEX, dexamethasone]
Response of original VgEcR/RXR reporter expression to ligand [2]: did not respond

Response of VgGR/RXR reporter expression to ligand ([1]; ligand alone, HEK293, 20 h): did not respond
Compound: CC(C)CC[C@@H](O)[C@](C)(O)[C@H]1CC[C@@]2(O)C3=CC(=O)[C@@H]4C[C@@H](O)[C@@H](O)C[C@]4(C)[C@H]3CC[C@]12C [PonA, ponasterone A]

Effect of increasing antagonist concentration on DEX-activated output [1]: reduction of output levels
Effect on reporter expression in the absence of DEX [1]: increase in reporter expression
Compound: CC#C[C@]1(O)CC[C@H]2[C@@H]3CCC4=CC(=O)CCC4=C3[C@@H](c3ccc(N(C)C)cc3)C[C@@]21C [RU-486, mifepristone]

Compound: C[C@]12C=CC(=O)C=C1CC[C@@H]1[C@@H]2[C@@H](O)C[C@@]2(C)[C@H]1CC[C@]2(O)C(=O)CO [PRED, prednisolone]
Response of original VgEcR/RXR reporter expression to ligand [2]: did not respond
